Measurements from patent publication US20110263610A1, “COMPOUNDS AND COMPOSITIONS AS ITPKB INHIBITORS” (IRM LLC, priority 2008, published 2011).
Where two headings read alike, the source gives them in different places.

Molecular target: T1, ITPKb (Mus musculus, UniProt B2RXC2)
T1 construct: murine ITPKb residues 640-942; MGSDKIHHHHHH (His6 tag from MH4 plasmid) (N); made in house; host or cells: Escherichia coli HK100
T1 sequence (B2RXC2 640-942): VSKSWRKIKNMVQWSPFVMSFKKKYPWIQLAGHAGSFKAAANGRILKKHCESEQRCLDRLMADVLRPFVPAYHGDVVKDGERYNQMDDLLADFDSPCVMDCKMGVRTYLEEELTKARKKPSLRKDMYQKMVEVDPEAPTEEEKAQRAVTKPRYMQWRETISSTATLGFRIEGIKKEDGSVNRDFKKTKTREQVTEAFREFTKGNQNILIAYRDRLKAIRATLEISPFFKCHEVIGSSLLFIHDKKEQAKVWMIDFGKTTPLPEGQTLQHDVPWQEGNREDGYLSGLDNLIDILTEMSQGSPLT
Assay: Biochemical measurement of ITPKb activity (Kinase-Glo ATP depletion assay); inhibiting the phosphorylation of IP3 to IP4
Parameters: species or system murine
Procedure: Compounds of the present invention are assayed to measure their capacity to inhibit ITPKb according to the following assays.
The DNA sequence encoding murine ITPKb residues 640-942 is amplified from a full-length construct in mammalian expression vector pKDNZ by PCR. The 3′-primer incorporates a stop codon and an overhanging PacI site. The product is digested with Pad before being ligated into the MH4 plasmid which has been prepared by digestion with PmlI and PacI. Cloning into the MH4 plasmid adds the sequence MGSDKIHHHHHH to the N-terminus of the translated region. Mutant enzymes are made by site-directed mutagenesis using the Stratagene Quikchange kit.
ITPKb is expressed in the HK100 strain of Escherichia coli. Typically, a 4 L batch of cells is grown in LB with […] ampicillin to 0.5 A600 at 30 degrees C., before induction with 0.02% L-arabinose for 6 hours. Cells are harvested by centrifugation, and pellets are resuspended in 50 mL of 50 mM Tris (pH 8), 100 mM NaCl, 1 mM TCEP, and 0.1 mg/mL lysozyme, with 1 Complete protease inhibitor tablet (Roche). Cells are disrupted by sonication, and debris is removed by centrifugation for 40 minutes at 35000 g.
Initial purification is performed using three nickel-Sepharose Hi-Trap HP 1 mL columns (Amersham) connected in series. After application of the pellet supernatants, the bound material is washed with 20 mM Tris (pH 8.0), 20 mM imidazole, 10% glycerol (v/v), and 1 mM TCEP before elution with an imidazole gradient up to 200 mM.
Fractions containing ITPKb are identified by SDS-PAGE, and the pure fractions are concentrated and buffer exchanged using centriprep 20 15 kDa columns into 20 mM Tris (pH 8), 200 mM KCl, 5 mM MgCl2, 0.5 mM DTT, 10% glycerol, 1 μM IP3, and 20 μM ATP to a final protein concentration of 7 mg/mL.
ITPKb activity is determined using the Kinase-Glo (Promega) ATP depletion assay. The assay reaction buffer consists of 50 mM Tris (pH 8.0), 100 mM NaCl, 1 mM DTT, 10% glycerol, 5 mM MgCl2, 1 μM ATP, and 10 μM IP3 (Alexis Biochemicals). 50 nl of inhibitor is then added to each 40 μL reaction followed by a 10 μL addition of purified ITPKb (final concentration of 60 nM). The reaction mixture is incubated for 60 minutes at room temperature and stopped by the addition of an equal volume of kinase-glo reagent (Promega). Luminescence is measured using a Molecular Devices Acquest instrument.

[1] = read-out: IC50 in inhibiting the phosphorylation of IP3 to IP4
[2] = Table 1, inhibiting the phosphorylation of IP3 to IP4, read-out: IC50
[3] = Table 2, inhibiting the phosphorylation of IP3 to IP4, read-out: IC50

| SMILES | IC50 [2] [nM] | also measured |
| --- | --- | --- |
| C[C@@H]1CN(Cc2c[nH]nc2-c2ccc(C#N)[nH]2)CCN1c1ccc(C(F)(F)F)cn1 [Example 4, (R)-5-(4-((3-methyl-4-(5-(trifluoromethyl)pyridin-2-yl)piperazin-1-yl)methyl)-1H-pyrazol-3-yl)-1H-pyrrole-2-carbonitrile] | – | IC50 [1]: 81 nM |
| C[C@@H]1CN(Cc2c[nH]nc2-c2cc(C(=O)O)co2)CCN1c1ccc(C(F)(F)F)cn1 [Example 52] | 1040 | – |
| N#Cc1c[nH]c(-c2n[nH]cc2CN2CCN(c3ccc(C(F)(F)F)cn3)[C@H](C(F)(F)F)C2)c1 [Example 29] | 9 | – |
| C[C@@H]1CN(Cc2c[nH]nc2-c2cc(C(=O)N[C@@H](C)CO)c[nH]2)CCN1c1ccc(C(F)(F)F)cn1 [Example 45] | 6 | – |
| C[C@@H]1CN(Cc2c[nH]nc2C2=CCN(C=O)CC2)CCN1c1ccc(C(F)(F)F)cn1 [Example 10, (R)-4-(4-((3-methyl-4-(5-(trifluoromethyl)pyridin-2-yl)piperazin-1-yl)methyl)-1H-pyrazol-3-yl)-5,6-dihydropyridine-1(2H)-carbaldehyde] | – | IC50 [3]: 10 nM |
| C[C@@H]1CN(Cc2c[nH]nc2-c2cc(C(=O)N(C)C)c[nH]2)CCN1c1ccc(C(F)(F)F)cn1 [Example 41] | 85 | – |
| C[C@@H]1CN(Cc2c[nH]nc2C(=O)Nc2nc[nH]c2C#N)CCN1c1ccc(C(F)(F)F)cn1 [Example 30] | > 10000 | – |
| C[C@@H]1CN(Cc2c[nH]nc2C2=CCN(C(=O)CCO)CC2)CCN1c1ccc(C(F)(F)F)cn1 [Example 54] | 80 | – |
| C[C@@H]1CN(Cc2n[nH]nc2-c2ccc(C#N)cc2)CCN1c1ccc(C(F)(F)F)cc1 [Example 19, (R)-4-(5-((3-methyl-4-(4-(trifluoromethyl)phenyl)piperazin-1-yl)methyl)-2H-1,2,3-triazol-4-yl)benzonitrile] | – | IC50 [3]: 40 nM |
| C[C@@H]1CN(Cc2c[nH]nc2C(=O)Nc2n[nH]cc2C#N)CCN1c1ccc(C(F)(F)F)cn1 [Example 33] | > 10000 | – |
| C[C@@H]1CN(Cc2c[nH]nc2-c2ccc(C#N)c(=O)[nH]2)CCN1c1ccc(C(F)(F)F)cn1 [Example 21] | 49 | – |
| C[C@@H]1CN(Cc2c[nH]nc2-c2c[nH]c(C#N)c2)CCN1c1ccc(C(F)(F)F)cn1 [Example 6, (R)-4-(4-((3-methyl-4-(5-(trifluoromethyl)pyridin-2-yl)piperazin-1-yl)methyl)-1H-pyrazol-3-yl)-1H-pyrrole-2-carbonitrile] | – | IC50 [1]: 6 nM |
| C[C@@H]1CN(Cc2c[nH]nc2-c2nc3cc(F)ccc3[nH]2)CCN1c1ccc(C(F)(F)F)cn1 [Example 27] | 9800 | – |
| C[C@@H]1CN(Cc2c[nH]nc2-c2nc3cc(C#N)ccc3[nH]2)CCN1c1ccc(C(F)(F)F)cn1 [Example 28] | 2450 | – |
| C[C@@H]1CN(Cc2c[nH]nc2C2=CCNCC2)CCN1c1ccc(C(F)(F)F)cn1 [Example 9, (R)-2-methyl-4-((3-(1,2,3,6-tetrahydropyridin-4-yl)-1H-pyrazol-4-yl)methyl)-1-(5-(trifluoromethyl)pyridin-2-yl)piperazine] | – | IC50 [3]: 278 nM |
| C[C@@H]1CN(Cc2c[nH]nc2-c2cc(C(N)=O)c[nH]2)CCN1c1ccc(C(F)(F)F)cn1 [Example 2, (R)-5-(4-((3-methyl-4-(5-(trifluoromethyl)pyridin-2-yl)piperazin-1-yl)methyl)-1H-pyrazol-3-yl)-1H-pyrrole-3-carboxamide] | – | IC50 [1]: 3 nM |
| C[C@@H]1CN(Cc2c[nH]nc2-c2ccnc3[nH]ccc23)CCN1c1ccc(C(F)(F)F)cn1 [Example 40] | 478 | – |
| C[C@@H]1CN(Cc2c[nH]nc2-c2cc(C#N)c[nH]2)CCN1c1ccc(C(F)(F)F)cn1 [Example 1, (R)-5-(4-((3-methyl-4-(5-(trifluoromethyl)pyridin-2-yl)piperazin-1-yl)methyl)-1H-pyrazol-3-yl)-1H-pyrrole-3-carbonitrile] | – | IC50 [1]: 9 nM |
| C[C@@H]1CN(Cc2c[nH]nc2C(=O)Nc2cc(-c3ccco3)n[nH]2)CCN1c1ccc(C(F)(F)F)cn1 [Example 31] | 5330 | – |
| FC(F)(F)c1ccc(N2CCN(Cc3c[nH]nc3-c3cccs3)CC2)nc1 [Example 22] | 4320 | – |
| CNC(=O)c1c[nH]c(-c2n[nH]cc2CN2CCN(c3ccc(C(F)(F)F)cn3)[C@H](C)C2)c1 [Example 3, (R)—N-methyl-5-(4-((3-methyl-4-(5-(trifluoromethyl)pyridin-2-yl)piperazin-1-yl)methyl)-1H-pyrazol-3-yl)-1H-pyrrole-3-carboxamide] | – | IC50 [1]: 11 nM |
| C[C@@H]1CN(Cc2c[nH]nc2-c2cc(C(=O)NCCO)c[nH]2)CCN1c1ccc(C(F)(F)F)cn1 [Example 42] | 14 | – |
| C[C@@H]1CN(Cc2c[nH]nc2-c2nc(C#N)c[nH]2)CCN1c1ccc(C(F)(F)F)cn1 [Example 13, (R)-2-(4-((3-methyl-4-(5-(trifluoromethyl)pyridin-2-yl)piperazin-1-yl)methyl)-1H-pyrazol-3-yl)-1H-imidazole-4-carbonitrile] | – | IC50 [3]: 102 nM |
| C[C@@H]1CN(Cc2c[nH]nc2-c2ccc(C(N)=O)[nH]2)CCN1c1ccc(C(F)(F)F)cn1 [Example 5, (R)-5-(4-((3-methyl-4-(5-(trifluoromethyl)pyridin-2-yl)piperazin-1-yl)methyl)-1H-pyrazol-3-yl)-1H-pyrrole-2-carboxamide] | – | IC50 [1]: 28 nM |
| C[C@@H]1CN(Cc2c[nH]nc2-c2cc3ccccc3[nH]2)CCN1c1ccc(C(F)(F)F)cn1 [Example 8, (R)-2-(4-((3-methyl-4-(5-(trifluoromethyl)pyridin-2-yl)piperazin-1-yl)methyl)-1H-pyrazol-3-yl)-1H-indole] | – | IC50 [3]: 192 nM |
| NC(=O)c1c[nH]c(-c2n[nH]cc2CN2CCN(c3ccc(C(F)(F)F)cn3)[C@H](C(F)(F)F)C2)c1 [Example 51] | 2 | – |
| C[C@@H]1CN(Cc2c[nH]nc2-c2cc(C(N)=O)co2)CCN1c1ccc(C(F)(F)F)cn1 [Example 53] | 78 | – |
| COC(=O)c1ccc(-c2n[nH]cc2CN2CCN(c3ccc(C(F)(F)F)cn3)[C@H](C)C2)o1 [Example 37] | 984 | – |
| C[C@@H]1CN(Cc2c[nH]nc2-c2nc3cnccc3[nH]2)CCN1c1ccc(C(F)(F)F)cn1 [Example 16, (R)-2-(4-((3-methyl-4-(5-(trifluoromethyl)pyridin-2-yl)piperazin-1-yl)methyl)-1H-pyrazol-3-yl)-1H-imidazo[4,5-c]pyridine] | – | IC50 [3]: 975 nM |

Now from value to compound, other results behind:

| IC50 [2] [nM] | SMILES | also measured |
| --- | --- | --- |
| > 10000 | C[C@@H]1CN(Cc2c[nH]nc2C(=O)N2CC(O)C2)CCN1c1ccc(C(F)(F)F)cn1 [Example 34] | – |
| 431 | C[C@@H]1CN(Cc2c[nH]nc2C2CCNCC2)CCN1c1ccc(C(F)(F)F)cn1 [Example 48] | – |
| > 10000 | C[C@@H]1CN(Cc2c[nH]nc2C(=O)N2CCC(O)C2)CCN1c1ccc(C(F)(F)F)cn1 (stereo partly drawn) [Example 35] | – |
| 435 | C[C@@H]1CN(Cc2c[nH]nc2-c2ccc(C(=O)O)o2)CCN1c1ccc(C(F)(F)F)cn1 [Example 38] | – |
| > 10000 | C[C@@H]1CN(Cc2c[nH]nc2C(=O)N2CCC(O)CC2)CCN1c1ccc(C(F)(F)F)cn1 [Example 36] | – |
| 241 | C[C@@H]1CN(Cc2c[nH]nc2C2CCN(C=O)CC2)CCN1c1ccc(C(F)(F)F)cn1 [Example 49] | – |
| 99 | C[C@@H]1CN(Cc2c[nH]nc2/C=C2\NC(=N)NC2=O)CCN1c1ccc(C(F)(F)F)cn1 [Example 50] | – |
| 8 | C[C@@H]1CN(Cc2c[nH]nc2-c2ccc(C(N)=O)o2)CCN1c1ccc(C(F)(F)F)cn1 [Example 39] | – |
| > 10000 | Cc1nc(-c2n[nH]cc2CN2CCN(c3ccc(C(F)(F)F)cn3)[C@H](C)C2)[nH]c1C [Example 25] | – |
| 5010 | C[C@@H]1CN(Cc2c[nH]nc2-c2nc3c([nH]2)CCCC3)CCN1c1ccc(C(F)(F)F)cn1 [Example 26] | – |
